For orientation: MIC means the lowest concentration that inhibits growth of the organism. A high value points to weaker potency. The term AUC(0-t) denotes exposure summed from dosing to a finite time, without extrapolation to infinity. Read a high AUC(0-t) as more exposure. As a reminder, the inhibition is the drop in the measured response relative to a control, in per cent. Low values mean a weak effect, high ones a strong effect.

Results on 4 compounds are retold here after patent US7563805B2, “Tri-, tetra-substituted-3-aminopyrrolidine derivative” (Daiichi Pharmaceutical Co., Ltd., priority 2005, dated 2009).

Series [1] concerns bone marrow cells (polychromatic erythrocytes). Nature of the series: mouse bone marrow micronucleus test. To be noted: in vivo. It is filed as in vivo, Slc:ddY male mice. As to the method:
The control was 0.1 mol/l NaOH/physiological saline solvent, and the positive control was cyclophosphamide (cyclophoshamide, CP) dissolved and diluted in physiological saline. All samples were sterilized by filtering through Milex GS filter (0.22 μm). Each solution was intravenously administered at a dose of 10 mL/kg in single dose at an administration rate of 0.2 mL/min.
Bone marrow cells were collected from thigh bone at 24 hours after the administration, and smear preparation was prepared. After staining with acridine orange, 1000 polychromatic erythrocytes per animal were observed under fluorescence microscope to count frequency of micrronucleated polychromatic erythrocyte and ratio of the orthochromatic erythrocytes to the polychromatic erythrocyte in 1000 erythrocytes.

Series [2] is classed as in vivo. Particulars: 30 minutes observation. As to the method:
The test substance was intracisternally administered to male Slc:ddy mice (6 animals per group), and the convulsion and death were monitored for each cage until 30 minutes after the administration. The test substance was dissolved in 5 μl of 1% aqueous solution of lactic acid, and the dose was 5, 15, or 50 μg per animal.

The conditions of series [3]: rat, in vivo, po, 5 mg/kg.
Experimental: (§1) The Comparative compound was also evaluated by the same procedure.
(§2) The test substance was orally administered to fasted rats (7 week old male Crj:CD IGS rats purchased from Charles River Laboratories Japan, Inc.) at a dose of 5 mg/kg.
(§3) Animals of absorption test group (3 animals per group) were sacrificed by bleeding under etherization at 0.25, 0.5, 1, 2, 4, and 8 hours after the drug administration, and blood, lever, kidney, and lung were collected. The blood was centrifuged (3000 rpm×15 minutes, 4° C.) after coagulation to collect serum. Tissue was homogenized after adding 3 to 5 mL of 0.1 mol/l phosphate buffer (pH 7.0), and the supernatant was collected from the homogenate (3000 rpm×15 minutes, 4° C.).
(§4) Animals of excretion test group (3 animals per group) were placed in a metabolic cage, and the urine of 0 to 4 hours and 4 to 24 hours after the administration was collected in a water-cooled container. Simultaneously with the collection of the urine, the cage was also washed with about 15 mL of 0.1 mol/l phosphate buffer (pH 7.0) to collect the urine attached to the cage. For evaluation of conjugates such as glucuronide, the collected sample was also aliquoted and hydrolyzed with an equal amount of 1 mol/l aqueous solution of sodium hydroxide, and the hydrolysate was neutralized with 0.5 mol/l hydrochloric acid and measured for its concentration. The concentration was measured by LC-MS/MS method.
(§5) Pharmacokinetic parameters of the each drug in rat were calculated by from the time course of the average concentration by using pharmacokinetic analysis software PSAG-CP (AS Medica Inc.) in a manner not dependent on the model animal.
Series [4] addresses T1, hERG K+ channel (Homo sapiens, UniProt Q12809).
The test system of a further series is E. coli NIHJ. The series is described as follows: antibacterial activity (MIC), standard method of Japanese Society of Chemotherapy.
The subject of a further series is P. vulgaris, 08601. The series is described as above.
Another series concerns S. marscecens, 10100. The series is described as above.
A further series deals with P. aeruginosa, 32104. The description is as above.
The next series deals with P. aeruginosa, 32121. The series is described as above.
The subject of the next series is S. aureus, 209P. The series is described as above.
The subject of the next series is S. epidermidis, 56500. Described as above.
The test system of a further series is E. faecalis, ATCC 19433. The series is described as above.
For series [5], the system named is S. aureus, 87037 (LVFX-resistant MRSA). Described as above. To be noted: S. aureus, 87037 (LVFX-resistant MRSA).
For series [6], the system named is S. pneumoniae, J24 (penicillin-intermediate resistant bacteria). The description is as above.
A further series deals with CYP3A4 (Homo sapiens, UniProt P08684). Particulars: known from the document cited; cited from earlier work.
CYP3A4, sequence (P08684 whole entry): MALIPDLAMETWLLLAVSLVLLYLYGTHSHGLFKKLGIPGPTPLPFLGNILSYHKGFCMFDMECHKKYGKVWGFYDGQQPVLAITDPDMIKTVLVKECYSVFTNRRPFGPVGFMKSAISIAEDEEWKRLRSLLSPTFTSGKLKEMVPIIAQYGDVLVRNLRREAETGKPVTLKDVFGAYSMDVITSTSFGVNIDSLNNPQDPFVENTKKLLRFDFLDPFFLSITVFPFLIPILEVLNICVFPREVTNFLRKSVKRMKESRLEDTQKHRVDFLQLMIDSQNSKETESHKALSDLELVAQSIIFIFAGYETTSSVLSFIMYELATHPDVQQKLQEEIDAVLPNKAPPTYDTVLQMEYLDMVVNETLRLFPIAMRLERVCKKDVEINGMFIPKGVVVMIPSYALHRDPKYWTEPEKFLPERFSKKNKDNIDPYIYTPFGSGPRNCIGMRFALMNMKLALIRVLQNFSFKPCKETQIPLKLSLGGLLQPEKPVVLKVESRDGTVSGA
Details of series [7]: species or system guinea pigs (Slc:Hertley). To be noted: guinea pig, in vivo; for Average score in GPMT: male, Slc:Hertley. How it is done: Guinea pig maximization test (GPMT) which is a widely accepted model for delayed antigenicity was conducted according to the method of Mugnusson et al. (J. invest. Dermatol., 52, 1969) by using a cutaneous sensitization concentration of 1% and a patch sensitization and induction concentration of 10%. At day 1, the animal was sensitized by cutaneously administering the test substance (the quinolone compounds and the control: vehicle, vaseline) (1% solution in physiological saline+FCA emulsion) at the back of the head of the shaved guinea pigs (7 week old male Slc:Hertley). At day 7, lauryl sodium sulfate (SLC) was applied for stimulus (adjuvant treatment), and on the next day, the test substance coated on a wax paper was patched onto the shaved skin to for sealed sensitization, and after 48 hours (at day 10), the waxed paper was removed. The skin reaction was observed upon the removal. On day 22, the test substance (10%) was patched onto the anterior side of the body for induction, and the induction patching was removed after 24 hours. On the next day (at day 24) and the next day (at day 25), the skin reaction was evaluated according to the description of the document as mentioned above. Erythema and edema were scored, and the case with the total score of 2 or higher was evaluated to be positive with the maximum of the score being 7.

The conditions of series [8]: female, cynomolgus monkey, in vivo, 5 mg/kg.
The next series is described as follows: in vivo. To be noted: female, cynomolgus monkey, po, 5 mg/kg.
Series [9] addresses T1, hERG K+ channel. Nature of the series: hERG-K^+ channel blocking effect. (The hERG channel carries a current that helps repolarise heart muscle cells.)
The nature of series [10]: pharmacokinetics in rat (concentration in blood and organs, urine excretion) after oral administration.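 Also: fasted 7-week-old rats, three per group, tissue sampled up to 8 h post-dose and urine collected over 0–24 h, with conjugates measured after alkaline hydrolysis, concentrations by LC-MS/MS.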 To be noted: fasted rat, oral 5 mg/kg.
Experimental: as §1, §2, §3, §4, §5
For series [11] the following is noted: in vivo; cited from earlier work.

≈ marks a conversion by molar mass, not a printed value. Like-named read-outs stand apart in the source and are kept apart here.

T1 sequence (Q12809 whole entry): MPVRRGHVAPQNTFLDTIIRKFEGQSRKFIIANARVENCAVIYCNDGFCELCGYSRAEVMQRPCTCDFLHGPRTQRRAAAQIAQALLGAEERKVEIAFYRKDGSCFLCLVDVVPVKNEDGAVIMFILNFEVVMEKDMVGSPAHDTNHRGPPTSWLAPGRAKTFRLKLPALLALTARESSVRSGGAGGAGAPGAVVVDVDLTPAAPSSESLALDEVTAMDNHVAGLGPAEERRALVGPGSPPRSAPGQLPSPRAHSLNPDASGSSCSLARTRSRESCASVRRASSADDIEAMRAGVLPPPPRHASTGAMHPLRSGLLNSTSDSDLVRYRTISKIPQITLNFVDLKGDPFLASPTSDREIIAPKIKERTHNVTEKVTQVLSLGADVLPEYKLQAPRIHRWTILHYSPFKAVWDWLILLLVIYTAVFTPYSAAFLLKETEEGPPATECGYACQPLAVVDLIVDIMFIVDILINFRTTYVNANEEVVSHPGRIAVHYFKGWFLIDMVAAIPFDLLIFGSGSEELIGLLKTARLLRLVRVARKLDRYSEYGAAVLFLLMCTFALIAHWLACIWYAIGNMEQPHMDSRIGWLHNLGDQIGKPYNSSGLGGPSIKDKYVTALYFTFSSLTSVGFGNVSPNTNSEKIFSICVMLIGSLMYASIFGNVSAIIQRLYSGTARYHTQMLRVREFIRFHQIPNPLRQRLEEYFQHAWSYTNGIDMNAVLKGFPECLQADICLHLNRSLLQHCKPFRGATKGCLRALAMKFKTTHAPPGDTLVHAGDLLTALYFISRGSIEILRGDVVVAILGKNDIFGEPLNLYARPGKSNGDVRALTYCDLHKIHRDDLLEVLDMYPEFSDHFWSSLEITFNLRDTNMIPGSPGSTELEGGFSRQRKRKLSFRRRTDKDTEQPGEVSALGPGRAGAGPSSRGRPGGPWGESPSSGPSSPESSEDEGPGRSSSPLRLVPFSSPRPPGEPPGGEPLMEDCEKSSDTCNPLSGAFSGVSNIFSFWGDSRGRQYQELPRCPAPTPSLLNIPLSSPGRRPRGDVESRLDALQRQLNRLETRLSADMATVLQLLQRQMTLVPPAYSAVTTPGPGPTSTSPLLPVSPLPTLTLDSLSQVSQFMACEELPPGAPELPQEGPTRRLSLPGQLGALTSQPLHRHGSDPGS

With `COc1c(N2C[C@@H](C)[C@@](C)(N)C2)c(F)cc2c(=O)c(C(=O)O)cn([C@@H]3C[C@@H]3F)c12` (relative stereo) [Example 3, 7-[(3R*,4R*)-3-Amino-3,4-dimethylpyrrolidin-1-yl]-6-fluoro-1-[(1R,2S)-2-fluorocyclopropyl]-8-methoxy-1,4-dihydro-4-oxoguinoline-3-carboxylic acid], in [1], the “micronucleus induction rate versus control, evaluation result” value was “negative”. Moreover, the results for the “convulsant activity (animals affected / 6 animals per group)” value in series [2] (5 μg/mouse intracisternal), in series [2] (15 μg/mouse intracisternal) and in [2] (50 μg/mouse intracisternal) were 0/6, 2/6 and 6/6, respectively. For the same compound, the “Recovery (%) in urine in relation to the amount administered, 0-24 h” value in [3] worked out at 24.5%. For the same compound, the “Recovery (%) in urine in relation to the amount administered, Recovery (%) including conjugate” value in series [3] worked out at 24.7%. The “Serum AUC0-8 h” value in series [3] worked out at 1850 ng·h/mL. The “Serum Cmax (0.25 h)” value in [3] was determined as 1030 ng/mL. The “Tissue AUC0-8 h, Kidney” value in series [3] was 17100 ng·h/mL. For the same compound, the “Tissue AUC0-8 h, Liver” value in series [3] was 15400 ng·h/mL. Besides, the “Tissue AUC0-8 h, Lung” value in series [3] was determined as 7380 ng·h/mL. For the same compound, the “Tissue Cmax, Kidney” value in series [3] was determined as 8.83 µg/g. In series [3], the “Tissue Cmax, Liver” value came to 9.02 µg/g. Besides, the “Tissue Cmax, Lung” value in [3] turned out to be 3.47 µg/g. The entries for the “hERG-K^+ channel blocking effect, Inhibition (%)” value on hERG K+ channel [4] (30 µM), on hERG K+ channel [4] (100 µM) and on hERG K+ channel [4] (300 µM) were 5.3 ± 4.1%, 12.0 ± 4.0% and 22.3 ± 0.7%, respectively. Further, the MIC against E. coli NIHJ (E. coli NIHJ) worked out at 0.012 µg/mL (≈ 0.0295 µM); in the series on P. vulgaris, 08601 (P. vulgaris) it was 0.05 µg/mL (≈ 0.123 µM); with S. marscecens, 10100, 0.2 µg/mL (≈ 0.491 µM); against P. aeruginosa, 32104 (P. aeruginosa), 0.39 µg/mL (≈ 0.957 µM); in the series on P. aeruginosa, 32121 (P. aeruginosa) it was 0.2 µg/mL (≈ 0.491 µM); in the series on S. aureus, 209P, 0.025 µg/mL (≈ 0.0614 µM). Besides, the MIC against S. epidermidis, 56500 (S. epidermidis) came to 0.1 µg/mL (≈ 0.245 µM); in the series on E. faecalis, ATCC 19433 (E. faecalis), 0.2 µg/mL (≈ 0.491 µM); in [5], 0.78 µg/mL (≈ 1.91 µM); in series [6] it was 0.1 µg/mL (≈ 0.245 µM).

Consider `CC[C@H]1OC(=O)[C@H](C)[C@@H](O[C@H]2C[C@@](C)(OC)[C@@H](O)[C@H](C)O2)[C@H](C)[C@@H](O[C@@H]2O[C@H](C)C[C@H](N(C)C)[C@H]2O)[C@](C)(OC)C[C@@H](C)C(=O)[C@H](C)[C@@H](O)[C@]1(C)O` [clarithromycin], for which, at CYP3A4, the “MBI action for CYP3A4” value is listed as “exhibit MBI action for CYP3A4”.

With `COc1c(N2C[C@@H]3CCCN[C@@H]3C2)c(F)cc2c(=O)c(C(=O)O)cn(C3CC3)c12` [MFLX, moxifloxacin, reference compound], the “Evaluation in GPMT” value in series [7] is “Negative”. Further, the “Average score in GPMT” value in series [7] was 0. Moreover, the “Recovery (%) in urine in relation to the amount administered, Recovery (%) including conjugate” value in series [3] (male, Crj:CD IGS) turned out to be 30.8%; in series [8], 12.2%. The “Serum Cmax (0.25 h)” value in [3] (male, Crj:CD IGS) was 1490 ng/mL. Besides, in series [8] (po), the “Serum Cmax” value was 1030 ng/mL. The same compound yielded an AUC(0-t) in “in vivo” of 6640 ng·h/mL. At 30 µM the inhibition on hERG K+ channel [9] was 33.9 ± 8.3%. On hERG K+ channel [9], this compound showed an inhibition at 100 µM of 44.6 ± 10.2%. The inhibition at 300 µM at hERG K+ channel [9] stood at 69.9 ± 8.3%. Besides, the MIC with E. coli NIHJ (Escherichia coli) was 0.012 µg/mL (≈ 0.0299 µM); in the series with P. vulgaris, 08601 (Proteus vulgaris, 08601, P. vulgaris) it was 0.025 µg/mL (≈ 0.0623 µM); against P. aeruginosa, 32104 (Pseudomonas aeruginosa), 0.39 µg/mL (≈ 0.972 µM); in the series on P. aeruginosa, 32121 (Pseudomonas aeruginosa), 0.2 µg/mL (≈ 0.498 µM); in the series on S. aureus, 209P (Staphylococcus aureus) it was 0.05 µg/mL (≈ 0.125 µM); in the series on S. epidermidis, 56500 (Staphylococcus epidermidis, 56500, S. epidermidis) it was 0.2 µg/mL (≈ 0.498 µM). In addition, the MIC against E. faecalis, ATCC 19433 (Enterococcus faecalis, ATCC19433, E. faecalis) was 0.2 µg/mL (≈ 0.498 µM); in series [5] (Staphylococcus aureus, MRSA) it was 1.56 µg/mL (≈ 3.89 µM); in series [6] (Streptococcus pneumoniae) it was 0.1 µg/mL (≈ 0.249 µM). Further, the “Tissue Cmax, Lung” value in series [10] amounted to 4.69 µg/g.

As to `CO/N=C1\CN(c2nc3c(cc2F)c(=O)c(C(=O)O)cn3C2CC2)CC1CN` (centres unmarked) [Gemifloxacin, gemifloxacin], the “Average score in GPMT” value in series [7] came out at 6.8. For the same compound, the “side effect of rash in phase 3 clinical trial” value in series [11] is given as “frequently develops the side effect of rash”.
